Experimental data as given in patent publication US20210386738A1, “COMBINATION OF PRMT5 INHIBITORS AND BCL-2 INHIBITORS” (GLAXOSMITHKLINE INTELLECTUAL PROPERTY DEVELOPMENT LIMITED, priority 2018, published 2021).

Columns and labels:
Format in all cases: cell-based
[1] = system: lymphoma cell line SU-DHL-4; assay: Standard 6-day growth-death assay, SU-DHL-4; settings: single agent or fixed 1:1 combination; for EC50 / IC50: Homo sapiens, 144 h; for EC50: average of n=2, read-out: dEC50; for IC50: average of n=2, read-out: gIC50; for Ymin-T0 / gIC100: average of n=2
Description: (§1) The majority cell lines were obtained from GSK BioCat group, American Type Culture Collection (ATCC), or the Deutsche Sammlung von Mikroorganismen and Zellbulturen (DSMZ). All cell lines were maintained in growth medium in T75 cm^2 flasks, incubated at 37° C. with 5% CO2 and split every 3 to 4 days. Growth media conditions and cell line information are detailed in Table 1. Cells were counted using the Vi-Cell Analyzer (Beckman Coulter ViCell) to obtain viable cell counts.
(§2) Optimal cell seeding density was determined for all cell lines by monitoring proliferation over a range of seeding densities in 384-well format and identifying the seeding density at which cells grew logarithmically throughout six days. 50 uL of cells per well were plated in 384-well plates at the optimal seeding density in preferred supplemented culture media. Three plates were prepared per cell line and incubated overnight at 37° C. in 5% CO2.
(§3) In these studies, lymphoma cell lines were treated with PRMT5 inhibitor, compound A and BCL-2 targeted inhibitor, ABT-199 single agent or in combination using a fixed 1:1 ratio of each inhibitor over a 20-point titration. For compound A single and fixed 1:1 ratio combination with ABT-199 cell proliferation assay, cells were treated in duplicate with a 20-point, two-fold dilution series of Compound A, ABT-199 (≥14 μM top dose) single or combo treatment, and ≤0.15% DMSO final concentration. Plates were incubated for six days at the conditions described above. Cell growth was measured using CellTiter-Glo (Promega) and luminescence signal was detected with a BioTek Synergy Neo microplate reader. A plate of untreated cells was read at the time of compound/biologic addition to determine the T0 value representing the starting number of cells. Data were fit with a four-parameter equation to generate a concentration response curve using Assay Client software.
(§4) Results were background corrected by subtraction of values from wells containing no cells, expressed as a percentage of the T0 value (value at time=0), and plotted against compound concentration. The T0 value was normalized to 100% and represents the number of cells present at the time of compound addition. The cellular response was determined for each compound using a 4- or 6-parameter curve fit of cell viability against concentration using Assay Client software. Growth IC50 (gIC50) values correspond to the concentration intersecting the mid-point of the growth window (between DMSO and T0 values). Growth IC100 (gIC100) values correspond to the concentration at which 100% growth inhibition is achieved, based on the growth window. The Ymin−T0 value, a measure of net population cell growth or death, is calculated by subtracting the T0 value (100%) from the Ymin value (%) that is determined from the fit of the concentration response curve. Death EC50 (dEC50) values correspond to the concentration at which 50% net cell death is observed.
(§5) Individual curves were quality checked for three criteria: outlier data points, cell growth (population doubling ≥1.5), and proper curve fitting. […] Individual curves were QC checked for outlier data points, cell growth (population doubling ≥1.5), and proper curve fitting. Obvious outlier data points were omitted only as needed to ensure proper curve fit.
(§6) For fixed ratio screening, combination activity was assessed by the fold change in gIC50 compared to the 2 single agent curves by dividing the compound ratio as necessary. Combinations showing >3-fold and >5-fold change from single agent are described as below: • Fold changes ≥5 are considered to represent strong synergy. • Fold changes between 3.0 and 4.9 are considered to represent weak synergy. • Fold changes <3 are considered to represent no synergy.

[2] = system: lymphoma cell line NU-DUL-1; assay: Standard 6-day growth-death assay, NU-DUL-1; settings: single agent or fixed 1:1 combination; for IC50: average of n=2, read-out: gIC50; for Ymin-T0 / gIC100: average of n=2
Description: as §1, §2, §3, §4, §5, §6

[3] = system: lymphoma cell line DOHH-2; assay: Standard 6-day growth-death assay, DOHH-2; settings: single agent or fixed 1:1 combination; for EC50 / IC50: Homo sapiens, 144 h; for EC50: average of n=2, read-out: dEC50; for IC50: average of n=2, read-out: gIC50; for Ymin-T0 / gIC100: average of n=2
Description: as §1, §2, §3, §4, §5, §6

Z-138 = assay: Standard 6-day growth-death assay, Z-138 as control for Compound A; settings: single agent or fixed 1:1 combination; for EC50 / IC50: Homo sapiens, 144 h; for EC50: average of n=2, read-out: dEC50; for IC50: average of n=2, read-out: gIC50; for Ymin-T0 / gIC100: average of n=2
Description: as §1, §2, §3, §4, §5, §6

[4] = system: lymphoma cell line WSU-FSCCL; assay: Standard 6-day growth-death assay, WSU-FSCCL; settings: single agent or fixed 1:1 combination; for EC50 / IC50: 144 h; for EC50: average of n=2, read-out: dEC50; for IC50: average of n=2, read-out: gIC50; for Ymin-T0 / gIC100: average of n=2
Description: as §1, §2, §3, §4, §5, §6

[5] = system: lymphoma cell line U-2932; assay: Standard 6-day growth-death assay, U-2932; settings: single agent or fixed 1:1 combination; for EC50 / IC50: Homo sapiens, U2932, 144 h; for EC50: average of n=2, read-out: dEC50; for IC50: average of n=2, read-out: gIC50; for Ymin-T0 / gIC100: average of n=2
Description: as §1, §2, §3, §4, §5, §6

[6] = system: lymphoma cell line JV-M2*; assay: Standard 6-day growth-death assay, JV-M2*; settings: single agent or fixed 1:1 combination; for IC50: average of n=2, read-out: gIC50; for Ymin-T0 / gIC100: average of n=2
Description: as §1, §2, §3, §4, §5, §6

| SMILES | EC50 [1] [nM] | IC50 [1] [nM] | Ymin-T0 [1] [%] | gIC100 [1] [µM] | IC50 ([2]; Homo sapiens, 144 h) [nM] | Ymin-T0 [2] [%] | gIC100 [2] [µM] | EC50 [3] [nM] | IC50 [3] [nM] | Ymin-T0 [3] [%] | gIC100 [3] [nM] | EC50 (Z-138) [nM] | IC50 (Z-138) [nM] | Ymin-T0 (Z-138) [%] | gIC100 (Z-138) [nM] | EC50 [4] [nM] | IC50 [4] [nM] | Ymin-T0 [4] [%] | gIC100 [4] [µM] | EC50 [5] [nM] | other results |
| --- | --- | --- | --- | --- | --- | --- | --- | --- | --- | --- | --- | --- | --- | --- | --- | --- | --- | --- | --- | --- | --- |
| O=C(NC[C@H](O)CN1CCc2ccccc2C1)c1ccnc(NC2CCC2)c1 [Compound A] | > 14700 | 743 | 1083 | 14.663 | 3730 | −11 | 12.659 | 1940 | 41 | −100 | 1474 | 794 | 38 | −93.1 | 453 | > 14700 | 388 | 224 | 14.663 | 3070 | EC50 ([2]; Homo sapiens, 144 h, average of n=2, read-out: dEC50): > 14700 nM; IC50 [5]: 281 nM; Ymin-T0 [5]: −88%; gIC100 [5]: 1542 nM; IC50 ([6]; Homo sapiens, JVM-2, 144 h): 139 nM; Ymin-T0 [6]: −14%; gIC100 [6]: 2211 nM |
| CC1(C)CCC(CN2CCN(c3ccc(C(=O)NS(=O)(=O)c4ccc(NCC5CCOCC5)c([N+](=O)[O-])c4)c(Oc4cnc5[nH]ccc5c4)c3)CC2)=C(c2ccc(Cl)cc2)C1 [ABT-199, venetoclax, reference compound] | 13000 | 673 | 316 | 12.485 | 3020 | −45 | 4.832 | 1820 | 51 | −69 | 2897 | 3120 | 14 | −78 | 1119 | 14600 | 238 | −49 | 10.53 | 3070 | IC50 [5]: 113 nM; Ymin-T0 [5]: −92%; gIC100 [5]: 1366 nM; EC50 ([6]; Homo sapiens, JVM-2, 144 h, average of n=2, read-out: dEC50): 9080 nM; IC50 ([6]; Homo sapiens, JVM-2, 144 h): 27 nM; Ymin-T0 [6]: −63%; gIC100 [6]: 1607 nM |
